Counter-ions that a name gives are not always drawn.
Assays:
Type in all cases: biochemical, Pseudomonas sp. No. 15-1
[1] = tested on: N-acetylhexosamine oxidase; test: Activity inhibition by metalic ion or inhibitor; settings: for inhibition of enzyme activity (in words): 1.8mM metalic ion
[2] = tested on: N-acetylhexosamine oxidase; test: Action and specificity for substrate; settings: in the presence of oxygen
Text: As shown in the following reaction formula, the present enzyme oxidizes N-acetylhexosamine in the presence of oxygen to form N-acetylhexosaminic acid and hydrogen peroxide.

[3] = tested on: N-acetylhexosamine oxidase; test: Activity stabilization by bovine serum albumin in heat treatment; settings: 1 mg/ml in potassium phosphate buffer solution of pH 6.8; 10 minutes heat treatment
Method: Further, in 10 minutes heat treatment at 45° C., the present enzyme is stable between pH 3 and pH 9 and loses its activity rapidly at a more acidic region and slowly at a more alkaline region. In this experiment, the hydrogen peroxide method was adopted, and the residual activity of the present enzyme subjected to 10 minutes heat treatment in a potassium phosphate buffer solution of pH 6.8 at each temperature was compared with the residual activity of the same enzyme subjected to the same treatment in a potassium phosphate buffer solution of pH 6.8 containing 1 mg/ml of bovine serum albumin.

[4] = 1.8mM metalic ion or inhibitor, tris-hydrochloric acid buffer solution of pH 7.5
[5] = tris-hydrochloric acid buffer solution of pH 7.5

Row | Compound | Residual activity (%) [1, 4] [%] | inhibition of enzyme activity (in words) [1, 5] | also measured
1 | O=[N+]([O-])[O-].[Ag+] [AgNO3] |  |  | Residual activity (%) ([1]; 1.8mM, Phosphate buffer solution): 5%
2 | [Ca+2].[Cl-].[Cl-] [CaCl2] | 91 |  | 
3 | O=S(=O)([O-])[O-].[Cd+2] [CdSO4] | 52 | considerably | 
4 | O=S(=O)([O-])[O-].[Co+2] [CoSO4] | 75 |  | 
5 | O=S(=O)([O-])[O-].[Cu+2] [CuSO4] | 74 |  | 
6 | O=C(O)CN(CCN(CC(=O)O)CC(=O)O)CC(=O)O [EDTA, Etheylenediaminetetracetic acid sodium salt] |  |  | Residual activity (%) ([1]; pH 7.5): 87%
7 | O=S(=O)([O-])[O-].[Fe+2] [FeSO4] | 15 | inhibited greatly | 
8 | NC(=O)CI [ICH2 CONH2] | 90 |  | 
9 | O=S(=O)([O-])[O-].[Mg+2] [MgSO4] | 86 |  | 
10 | O=S(=O)([O-])[O-].[Mn+2] [MnSO4] | 84 |  | 
11 | CC(=O)N[C@H]1[C@H]([C@H](O)[C@H](O)CO)OC(O)(C(=O)O)C[C@@H]1O (stereo partly shown) [N-acetylneuraminic acid] |  |  | action of the enzyme on the substrate [2]: hardly acts or does not all act
12 | O=S(=O)([O-])[O-].[Ni+2] [NiSO4] | 64 | considerably | 
13 | c1cnc2c(c1)ccc1cccnc12 [O'--Phenanthroline] | 81 |  | 
14 | O=C(O)c1cc[c]([Hg][Cl])cc1 [PCMB, pChloromercurybenzoate] | 67 |  | 
15 | CC(=O)[O-].CC(=O)[O-].[Pb+2] [Pb(CH3 COO)2] | 42 | considerably | 
16 | CCCCCCCCCCCCOS(=O)(=O)[O-].[Na+] [SDS, Sodium dodecylsulfate] | 87 |  | 
17 | O=S(=O)([O-])[O-].[Zn+2] [ZnSO4] | 2 | inhibited greatly | 
18 | HgCl2 | 17 | inhibited greatly | 
19 | bovine serum albumin |  |  | effect of addition on enzyme activity [3]: stabilized and moreover slightly enhanced

Reference: patent publication US4621057A (Noda Institute for Scientific Research, priority 1983, dated 1986)
